Experimental data taken from patent publication US20040253665A1, “Novel peptide-producing enzyme, microbe producing the enzyme and method for dipeptide synthesis using them” (AJINOMOTO CO., INC., priority 2002, published 2004).
Read-outs that look alike come from different tables or passages of the source. Non-standard residues stand in square brackets, D forms with d. Residues, ends and D or L forms follow the SMILES beside them.

Assays:
[1] = test system: peptide-producing enzyme (Mono S fraction) from Empedobacter brevis strain FERM BP-8113; test: Enzyme substrate specificity (1)-(10), (13), (14); format: biochemical; conditions: pH 9.0, 25° C., 3 hours
Source text: Ester specificity was examined in the case of using L-amino acid ester for the carboxy component. […] The amounts of L-Ala-L-Gln produced in this reaction are shown in Table 4 (HCl represents hydrochloride in Table 4). Peptide production was examined in the case of using L-alanine methyl ester for the carboxy component and using various L-amino acids for the amine component. […] (The “+” mark indicates those peptides for which production was confirmed but which were unable to be quantified due to the absence of a standard, while “tr” indicates a trace amount.) Peptide production was examined in the case of using various types of L-amino acid methyl esters for the carboxy component and using L-glutamine for the amine component. […] Peptide production was examined in the case of using various L-amino acid methyl esters for the carboxy component and various L-amino acids for the amine component. […] (The “tr” indicates a trace amount.) Furthermore, Tween-80 was added to the reaction system to a final concentration of 0.1% in the case of using L-Trp-OMe. (The “+” mark indicates those peptides for which production was confirmed but which were unable to be quantified due to the absence of a standard.) […] (The “tr” indicates a trace amount.) Peptide production was examined using various L-amino acid amides for the carboxy component, and various L-amino acids for the amine component. […] Peptide production was examined in the case of using various L-alanine methyl esters for the carboxy component and C-protected L-amino acids for the amine component. […] Peptide production was examined in the case of using various amino acid methyl esters for the carboxy component and methylamine for the amine component. […] Peptide production was examined in the case of using β-amino acid ester for the carboxy component or β-amino acid for the amine component. […] (The “tr” indicates a trace amount.) Oligopeptide production was examined in the case of using L-amino acid ester for the carboxy component and peptide for the amine component. […] Substrate specificity was additionally assessed using the same enzyme fraction as that used in Example 5. […] (A “+” mark indicates those for which production was confirmed but which were unable to be quantified due to the absence of a standard, while “tr” indicates a trace amount). Substrate specificity with respect to oligopeptide production was assessed using the same enzyme fraction as Example 26. […] (A “+” mark indicates those for which production was confirmed but which were unable to be quantified due to the absence of a standard, while “tr” indicates a trace amount). It should be noted that hydrochlorides were used for all of the carboxy components.

[2] = test system: enzyme (SP-Sepharose HP fraction) derived from Sphingobacterium sp. strain FERM BP-8124; format: biochemical; parameters: key to Produced peptide (mM): +: those peptides for which production was confirmed but which were unable to be quantified due to the absence of a standard; a trace amount; conditions: 0.33 units enzyme, pH 9.0, 25° C., 1.5 hours
Experimental: Substrate specificity was examined for enzyme derived from Sphingobacterium sp. strain FERM BP-8124 (Depositary institution: National Institute for Advanced Industrial Science and Technology, International Patent Organism Depositary, Address of depositary institution: Central. 6, 1-1-1 Higashi, Tsukuba City, Ibaraki Prefecture, Japan, International deposit date: Jul. 22, 2002). 100 μl of 100 mM borate buffer (pH 9.0) containing the various carboxy components at a final concentration of 100 mM and the various amine components at a final concentration of 150 mM shown in Tables 15-1 to 15-4, the SP-Sepharose HP fraction enzyme purified in Example 22 (addition of 0.33 units in the reaction liquid) and 10 mM EDTA were allowed to react at 25° C. for 1.5 hours. […] In addition, hydrochlorides were used for all carboxy components.
Substrate specificity with respect to oligopeptide production was examined for enzyme derived from Sphingobacterium sp. strain FERM BP-8124 (Depositary institution: National Institute for Advanced Industrial Science and Technology,.International Patent Organism Depositary, Address of depositary institution: Chuo Dai-6, 1-1 Higashi 1-Chome, Tsukuba-shi, Ibaraki-ken, Japan, International deposit date: Jul. 22, 2002). A 100 μl aliquot of 100 mM borate buffer (pH 9.0) containing the various carboxy components at a final concentration of 100 mM and the various amine components at a final concentration of 150 mM shown in Table 16, the SP-Sepharose HP fraction enzyme purified in Example 22 (addition of 0.33 units in the reaction liquid) and 10 mM EDTA were allowed to react for 1.5 hours at 25° C. Furthermore, hydrochloride salts were used for all carboxy components.

[3] = L or D amino acid methyl ester hydrochloride 100 mM, L or D amino acid 150 mM
[4] = Table 15-1, carboxy component 100 mM, amine component 150 mM
[5] = L-amino acid methyl ester hydrochloride 100 mM, L-amino acid 150 mM
[6] = Table 15-3, carboxy component 100 mM, amine component 150 mM
[7] = L-amino acid methyl ester hydrochloride 100 mM, 150 mM L-glutamine
[8] = Table 15-2, carboxy component 100 mM, L-Gln 150 mM
[9] = amino acid methyl ester 100 mM, methylamine 150 mM
[10] = Table 15-4, amides or methylamine as components, 100 mM / 150 mM
[11] = L-Ala-OMe 100 mM, L-amino acid amide 150 mM as amine component
[12] = 100 mM L-alanine methyl ester hydrochloride, L-amino acid 150 mM

## C[C@@H](N)C(=O)N[C@H](CO)C(=O)O [D-Ala-D-Ser] (H-[dA]-[dS]-OH)
[1]; [3]
  Produced peptide: 0.2 mM
[2]; [4]
  Produced peptide: 5.5 mM

## C[C@@H](N)C(=O)N[C@@H](CO)C(=O)O [D-Ala-L-Ser] (H-[dA]-Ser-OH)
[1]; [3]
  Produced peptide: 20.3 mM
[2]; [4]
  Produced peptide: 24.1 mM

## NCC(=O)N[C@@H](CCCN=C(N)N)C(=O)O [Gly-L-Arg] (H-Gly-Arg-OH)
[1]; [5]
  Produced peptide: 25.5 mM
[2]; [6]
  Produced peptide: 17.9 mM

## NCC(=O)N[C@@H](CCC(N)=O)C(=O)O [Gly-L-Gln] (H-Gly-Gln-OH)
[1]; [7]
  Produced peptide: 54.7 mM
[2]; [8]
  Produced peptide: 61.1 mM

## NCCCC[C@H](NC(=O)CN)C(=O)O [Gly-L-Lys] (H-Gly-Lys-OH)
[1]; [5]
  Produced peptide: 9.8 mM
[2]; [6]
  Produced peptide: 48.2 mM

## NCC(=O)N[C@@H](Cc1ccccc1)C(=O)O [Gly-L-Phe] (H-Gly-Phe-OH)
[1]; [5]
  Produced peptide: 44.0 mM
[1]; oligopeptide production, amount of enzyme 0.1 units
  Produced peptide: 17.3 mM
[2]; [6]
  Produced peptide: 20.0 mM

## NCC(=O)N[C@@H](CO)C(=O)O [Gly-L-Ser] (H-Gly-Ser-OH)
[1]; [5]
  Produced peptide: 44.2 mM
[2]; [6]
  Produced peptide: 53.8 mM

## CNC(=O)CN [Gly-methylamine]
[1]; [9]
  Produced peptide: 1.1 mM
[2]; [10]
  Produced peptide: 1.0 mM

## C[C@H](N)C(=O)N[C@H](CO)C(=O)O [L-Ala-D-Ser] (H-Ala-[dS]-OH)
[1]; [3]
  Produced peptide: 5.4 mM
[2]; [4]
  Produced peptide: 3.3 mM

## C[C@H](N)C(=O)NCC(N)=O [L-Ala-Gly-NH2] (H-Ala-Gly-NH2)
[1]; [11]
  Produced peptide: 7.4 mM
[2]; [10]
  Produced peptide: 15.1 mM

## C[C@H](N)C(=O)NCC(=O)O [L-Ala-Gly] (H-Ala-Gly-OH)
[1]; [12]
  Produced peptide: 13.7 mM
[2]; [4]
  Produced peptide: 11.1 mM

## C[C@H](N)C(=O)N[C@@H](C)C(N)=O [L-Ala-L-Ala-NH2] (H-Ala-Ala-NH2)
[1]; [11]
  Produced peptide: 8.3 mM
[2]; [10]
  Produced peptide: 9.2 mM

## C[C@H](N)C(=O)N[C@@H](C)C(=O)O [L-Ala-L-Ala] (H-Ala-Ala-OH)
[1]; [12]
  Produced peptide: 25.4 mM
[1]; L-amino acid ester 100 mM, amino acid or peptide amine component 150 mM
  Produced peptide: 28.7 mM
[2]; [4]
  Produced peptide: 13.1 mM
[2]; Table 16, oligopeptide production, carboxy component 100 mM, amine component 150 mM
  Produced peptide: 25.6 mM

## C[C@H](N)C(=O)N[C@@H](CC(N)=O)C(=O)O [L-Ala-L-Asn] (H-Ala-Asn-OH)
[1]; [12]
  Produced peptide: 65.5 mM
[2]; [4]
  Produced peptide: 52.3 mM

## C[C@H](N)C(=O)N[C@@H](CC(=O)O)C(=O)O [L-Ala-L-Asp] (H-Ala-Asp-OH)
[1]; [12]
  Produced peptide: 2.1 mM
[2]; [4]
  Produced peptide: 2.3 mM

## C[C@H](N)C(=O)N[C@@H](CCC(=O)O)C(=O)O [L-Ala-L-Glu] (H-Ala-Glu-OH)
[1]; [12]
  Produced peptide: 42.9 mM
[2]; [4]
  Produced peptide: 39.1 mM

## CC[C@H](C)[C@H](NC(=O)[C@H](C)N)C(=O)O [L-Ala-L-Ile] (H-Ala-Ile-OH)
[1]; [12]
  Produced peptide: 33.9 mM
[2]; [4]
  Produced peptide: 24.7 mM

## C[C@H](N)C(=O)N[C@@H](CCCCN)C(=O)O [L-Ala-L-Lys] (H-Ala-Lys-OH)
[1]; [12]
  Produced peptide: 71.8 mM
[2]; [4]
  Produced peptide: 71.2 mM

## C[C@H](N)C(=O)N[C@@H](Cc1ccccc1)C(N)=O [L-Ala-L-Phe-NH2]
[1]; [11]
  Produced peptide: 12.2 mM
[2]; [10]
  Produced peptide: 27.1 mM

## C[C@H](N)C(=O)N[C@H](C(=O)O)[C@@H](C)O [L-Ala-L-Thr] (H-Ala-Thr-OH)
[1]; [12]
  Produced peptide: 53.9 mM
[2]; [4]
  Produced peptide: 47.3 mM

## C[C@H](N)C(=O)N[C@@H](Cc1c[nH]c2ccccc12)C(=O)O [L-Ala-L-Trp] (H-Ala-Trp-OH)
[1]; [12]
  Produced peptide: 53.9 mM
[2]; [4]
  Produced peptide: 46.0 mM

## C[C@H](N)C(=O)N[C@@H](Cc1ccc(O)cc1)C(=O)O [L-Ala-L-Tyr] (H-Ala-Tyr-OH)
[1]; [12]
  Produced peptide: 17.6 mM
[2]; [4]
  Produced peptide: 11.1 mM

## CC(C)[C@H](NC(=O)[C@H](C)N)C(=O)O [L-Ala-L-Val] (H-Ala-Val-OH)
[1]; [12]
  Produced peptide: 20.8 mM
[2]; [4]
  Produced peptide: 10.9 mM

## CNC(=O)C(C)N [L-Ala-methylamine]
[1]; [9]
  Produced peptide: 0.3 mM
[2]; [10]
  Produced peptide: 0.6 mM

## NC(=O)CC[C@H](NC(=O)[C@@H](N)CCCN=C(N)N)C(=O)O [L-Arg-L-Gln] (H-Arg-Gln-OH)
[1]; [7]
  Produced peptide: 7.1 mM
[2]; [8]
  Produced peptide: 17.2 mM

## CSCC[C@H](NC(=O)[C@@H](N)CCCN=C(N)N)C(=O)O [L-Arg-L-Met] (H-Arg-Met-OH)
[1]; [5]
  Produced peptide: 0.7 mM
[2]; [6]
  Produced peptide (mM): tr

## NC(N)=NCCC[C@H](N)C(=O)N[C@@H](Cc1ccccc1)C(=O)O [L-Arg-L-Phe]
[1]; [5]
  Produced peptide: 1.9 mM
[2]; [6]
  Produced peptide (mM): tr

## NC(N)=NCCC[C@H](N)C(=O)N[C@@H](CO)C(=O)O [L-Arg-L-Ser] (H-Arg-Ser-OH)
[1]; [5]
  Produced peptide: 3.6 mM
[2]; [6]
  Produced peptide: 2.2 mM

## NC(=O)CC[C@H](NC(=O)[C@@H](N)CCC(N)=O)C(=O)O [L-Gln-L-Gln] (H-Gln-Gln-OH)
[1]; [7]
  Produced peptide: 0.3 mM
[2]; [8]
  Produced peptide: 0.1 mM

## CC[C@H](C)[C@H](N)C(=O)N[C@@H](CCC(N)=O)C(=O)O [L-Ile-L-Gln] (H-Ile-Gln-OH)
[1]; [7]
  Produced peptide: 8.4 mM
[2]; [8]
  Produced peptide: 6.4 mM

## CC[C@H](C)[C@H](N)C(=O)N[C@@H](Cc1ccccc1)C(=O)O [L-Ile-L-Phe] (H-Ile-Phe-OH)
[1]; [5]
  Produced peptide: 5.2 mM
[2]; [6]
  Produced peptide: 1.5 mM

## CC[C@H](C)[C@H](N)C(=O)N[C@@H](CO)C(=O)O [L-Ile-L-Ser] (H-Ile-Ser-OH)
[1]; [5]
  Produced peptide: 17.2 mM
[2]; [6]
  Produced peptide: 17.3 mM

## CSCC[C@H](N)C(=O)N[C@@H](CCC(N)=O)C(=O)O [L-Met-L-Gln] (H-Met-Gln-OH)
[1]; [7]
  Produced peptide: 12.0 mM
[2]; [8]
  Produced peptide: 32.6 mM

## CSCC[C@H](NC(=O)[C@@H](N)CCSC)C(=O)O [L-Met-L-Met] (H-Met-Met-OH)
[1]; [5]
  Produced peptide: 25.0 mM
[2]; [6]
  Produced peptide: 28.4 mM

## CSCC[C@H](N)C(=O)N[C@@H](CO)C(=O)O [L-Met-L-Ser] (H-Met-Ser-OH)
[1]; [5]
  Produced peptide: 12.8 mM
[2]; [6]
  Produced peptide: 25.3 mM

## NC(=O)CC[C@H](NC(=O)[C@@H](N)Cc1ccccc1)C(=O)O [L-Phe-L-Gln]
[1]; L-amino acid amide hydrochloride 100 mM as carboxy component, L-amino acid 150 mM
  Produced peptide: 0.2 mM
[1]; [7]
  Produced peptide: 0.9 mM
[2]; [8]
  Produced peptide: 0.8 mM

## NC(=O)CC[C@H](NC(=O)[C@@H]1CCCN1)C(=O)O [L-Pro-L-Gln] (H-Pro-Gln-OH)
[1]; [7]
  Produced peptide: 2.2 mM
[2]; [8]
  Produced peptide: 1.8 mM
